Patent US20110009332A1, “Therapeutic Treatment Of Wounds” (SOUTHWEST RESEARCH INSTITUTE, priority 2009, published 2011)

Target: 20S proteasomes (Homo sapiens, UniProt P28074)
Assay: Inhibition of 20S proteasome enzyme activity
Format: biochemical
Details: 0 nM to 10,000 nM, FIGS. 7-9
Method: The IC50 may be understood as the amount of a particular substance/molecule needed to inhibit a given biological process in vitro by 50% and may be an indicator of the potency of a compound. The activity of the proteasome may be quantified by measuring the amount of fluorescence produced by cleavage of a fluorogenic substrate, such as LLVY-AMC, which when released by proteasomal cleavage, may emit fluorescent light.
The enzyme activity of 20S proteasomes was measured upon increasing addition of the proteasome inhibitors PS-1, curcumin and genestein in concentrations ranging from 0 nM to 10,000 nM. In particular, FIG. 7 illustrates the inhibition of 20S proteasomes upon the addition of PS-1. […] FIG. 8 illustrates the inhibition of the 20S proteasomes upon the addition of curcumin. […] FIG. 9 illustrates the inhibition of the 20S proteasomes upon the addition of genestein.

Compound: O=c1c(-c2ccc(O)cc2)coc2cc(O)cc(O)c12 [genestein]
- enzyme activity of 20S proteasomes with increasing inhibitor concentration (in words): relatively smaller decrease in enzyme activity
